Here are results for eight molecules from PubChem BioAssay (NCI).

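1) Cells in 96-well plates. 2) Compound, 48 h, 5 concentrations. 3) Linear interpolation between surrounding doses. 4) Unreached endpoint = highest concentration. Here, GI50 denotes the concentration required for 50% inhibition of growth. TGI denotes the concentration required for complete inhibition of growth.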

Test systems include KM12 colon; TK-10 renal; CAKI-1 renal; SR leukemia; U251 CNS; ACHN renal; HS 578T breast; SK-MEL-5 melanoma; IGROV1 ovarian; NCI-H226 lung.
Holding throughout (assay): DTP human tumour cell line panel, 48 h

By GI50 is commonly meant the concentration giving 50% growth inhibition. What is called TGI is the concentration giving total growth inhibition. A lower TGI goes with greater sensitivity of the cells. `COc1ccc(/C=C\c2cc(OC)c(OC)c(OC)c2)cc1OCC(=O)Nc1nc2ccc(C(F)(F)F)cc2s1`: the GI50 in the assay on KM12 colon is 3.14 µM; in the assay on TK-10 renal it was 7.03 µM; in the assay with CAKI-1 renal, 3.1 µM; in the assay with SR leukemia, 3.35 µM; in the assay on U251 CNS it was 3.67 µM; with ACHN renal, 4.83 µM. In addition, the GI50 in the assay with HS 578T breast was 4.18 µM; in the assay on SK-MEL-5 melanoma, 2.84 µM; in the assay on IGROV1 ovarian it was 4.48 µM; in the assay on NCI-H226 lung, 3.17 µM. In addition, the TGI is 11.5 µM with KM12 colon; more than 100 µM with TK-10 renal; more than 100 µM with CAKI-1 renal; more than 100 µM with SR leukemia; more than 100 µM in the assay with U251 CNS; more than 100 µM with ACHN renal. Besides, the TGI in the assay on HS 578T breast is more than 100 µM; in the assay with SK-MEL-5 melanoma it was 13.9 µM; in the assay on IGROV1 ovarian, more than 100 µM; with NCI-H226 lung it was 31.3 µM.
On to `O=[N+]([O-])/C=C/c1c[nH]c2ccccc12`, for which the GI50 with KM12 colon was 14.6 µM; in the assay with TK-10 renal, 16.8 µM; in the assay with CAKI-1 renal it was 16.8 µM; in the assay with SR leukemia, 2.92 µM; in the assay on U251 CNS it was 12.8 µM; in the assay with ACHN renal, 17.1 µM. The GI50 in the assay on HS 578T breast is 21.2 µM; in the assay with SK-MEL-5 melanoma it was 16 µM; in the assay on IGROV1 ovarian it was 13.3 µM; in the assay with NCI-H226 lung, 18.1 µM. Besides, the total growth inhibition concentration (TGI) in the assay on KM12 colon came out at 31 µM; in the assay on TK-10 renal, 30.7 µM; in the assay with CAKI-1 renal, 32.7 µM; in the assay on SR leukemia it was 7.18 µM; with U251 CNS it was 26.7 µM; in the assay with ACHN renal it was 32.3 µM. In addition, the TGI was 66.6 µM in the assay on HS 578T breast, 32.1 µM with SK-MEL-5 melanoma, 27.6 µM in the assay on IGROV1 ovarian and 40.4 µM in the assay on NCI-H226 lung.
As for `S=C(N/N=C/c1ccccn1)Nc1ccccn1`, the GI50 in the assay with KM12 colon is 2.87 µM; in the assay with TK-10 renal, 2.93 µM; in the assay with CAKI-1 renal, 1.31 µM; in the assay on SR leukemia, 0.52 µM; in the assay on U251 CNS it was 1.07 µM; with ACHN renal it was 1.56 µM. Also, the GI50 is 4.8 µM in the assay on HS 578T breast, 0.874 µM in the assay with SK-MEL-5 melanoma, 3.17 µM in the assay on IGROV1 ovarian and 2.08 µM with NCI-H226 lung. Besides, the TGI in the assay with KM12 colon was more than 100 µM; in the assay with TK-10 renal it was more than 100 µM; with CAKI-1 renal it was more than 100 µM; with SR leukemia it was more than 100 µM; in the assay with U251 CNS it was 24 µM; in the assay with ACHN renal, more than 100 µM. For the same molecule, the TGI was more than 100 µM in the assay on HS 578T breast, 11.3 µM with SK-MEL-5 melanoma, more than 100 µM with IGROV1 ovarian and 11.8 µM with NCI-H226 lung.
For the molecule `COc1nc(C)cc2c(=O)n(-c3ccccc3)n(CCCN3CCN(c4ccc(Cl)cc4)CC3)c(=O)c12`, the GI50 in the assay on KM12 colon is more than 50 µM; with TK-10 renal, more than 50 µM; with CAKI-1 renal it was 38.2 µM; in the assay on SR leukemia, more than 50 µM; in the assay on U251 CNS it was 32.1 µM; in the assay with ACHN renal it was more than 50 µM. Moreover, the GI50 is 27.4 µM in the assay on HS 578T breast, 16.9 µM in the assay on SK-MEL-5 melanoma, more than 50 µM in the assay on IGROV1 ovarian and more than 50 µM in the assay with NCI-H226 lung. For the same molecule, the TGI with KM12 colon, in the assay with TK-10 renal, in the assay with CAKI-1 renal, in the assay with SR leukemia, with U251 CNS and in the assay on ACHN renal was more than 50 µM each time. Further, the TGI in the assay on HS 578T breast, in the assay with SK-MEL-5 melanoma, in the assay with IGROV1 ovarian and in the assay with NCI-H226 lung was more than 50 µM throughout.
Regarding `COc1ccc(-c2nc(-c3cn(C)c4ncccc34)cs2)cc1`, the GI50 with KM12 colon was 8.01 µM; in the assay on TK-10 renal, more than 100 µM; in the assay with CAKI-1 renal it was 18.2 µM; in the assay with SR leukemia, 9.7 µM; in the assay on U251 CNS, 78.5 µM; with ACHN renal, 91.7 µM. In addition, the GI50 with HS 578T breast is more than 100 µM; in the assay with SK-MEL-5 melanoma, 16.9 µM; in the assay on IGROV1 ovarian it was more than 100 µM; in the assay with NCI-H226 lung, more than 100 µM. For the same molecule, the TGI with KM12 colon, with TK-10 renal, in the assay with CAKI-1 renal, in the assay with SR leukemia, in the assay with U251 CNS and in the assay with ACHN renal was more than 100 µM each time. The TGI with HS 578T breast, with SK-MEL-5 melanoma, in the assay with IGROV1 ovarian and in the assay on NCI-H226 lung was more than 100 µM in each case.
Consider `O=C(NOCC1CC1)c1ccc(F)c(F)c1Nc1ccc(I)cc1Cl`, for which the GI50 with KM12 colon was 0.649 µM; with TK-10 renal, 1.13 µM; in the assay on CAKI-1 renal, 2.75 µM; in the assay with SR leukemia it was 3.04 µM; in the assay on U251 CNS, 1.55 µM; in the assay with ACHN renal, 1.13 µM. Besides, the GI50 in the assay with HS 578T breast was 4.85 µM; with SK-MEL-5 melanoma, 1.15 µM; in the assay on IGROV1 ovarian, 1.05 µM; with NCI-H226 lung, 2.77 µM. Moreover, the TGI was 7.34 µM in the assay on KM12 colon; 18.6 µM with TK-10 renal; more than 100 µM in the assay on CAKI-1 renal; 12.1 µM with SR leukemia; 12.2 µM with U251 CNS; more than 39 µM in the assay with ACHN renal. The TGI was more than 92 µM in the assay on HS 578T breast, 5.83 µM in the assay on SK-MEL-5 melanoma, 5.77 µM in the assay with IGROV1 ovarian and more than 52.1 µM in the assay with NCI-H226 lung.
Take `Cn1c(=O)c2[nH]c(CS(=O)(=O)Cc3nc4c([nH]3)c(=O)n(C)c(=O)n4C)nc2n(C)c1=O`: the TGI in the assay with KM12 colon, with TK-10 renal, in the assay on CAKI-1 renal, in the assay with SR leukemia, with U251 CNS and in the assay with ACHN renal was more than 100 µM in each case. Further, the TGI in the assay on HS 578T breast, with SK-MEL-5 melanoma, with IGROV1 ovarian and in the assay on NCI-H226 lung was more than 100 µM in each case.
On to `S=C(Nc1ccc(Cl)cc1)Nc1ccc(-c2nc3ccccc3[nH]2)cc1`, for which the GI50 was 4.45 µM in the assay with KM12 colon; 7.73 µM with TK-10 renal; 2.7 µM in the assay with CAKI-1 renal; 8.07 µM in the assay with SR leukemia; 5.06 µM with U251 CNS; 7.08 µM in the assay on ACHN renal. The GI50 in the assay on HS 578T breast was 6.49 µM; in the assay on SK-MEL-5 melanoma it was 6.37 µM; with IGROV1 ovarian it was 7.02 µM; in the assay on NCI-H226 lung it was 10 µM. In addition, the concentration for total growth inhibition (TGI) is more than 62 µM in the assay on KM12 colon; 36.1 µM in the assay on TK-10 renal; 12.5 µM in the assay on CAKI-1 renal; more than 21.5 µM in the assay with SR leukemia; 18.1 µM in the assay on U251 CNS; 31.2 µM in the assay on ACHN renal. Besides, the TGI was 60.6 µM with HS 578T breast, 23.2 µM with SK-MEL-5 melanoma, 23.7 µM in the assay on IGROV1 ovarian and more than 46.6 µM in the assay on NCI-H226 lung.
